Reference: PubChem BioAssay (NCI)
Values joined by “and” are separate entries in the source; they are usually repeats but may differ in a detail not shown here. Equal values may be shown once.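 Tested at 5 concentrations; 48 h exposure; 96-well plates; endpoints linearly interpolated, else capped at highest concentration. GI50: concentration for 50% inhibition of growth. TGI marks complete inhibition of growth.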

Experiments:
Experiment in all cases: growth of human tumour cells (NCI), 48 h
[1] = test system: SW-620 colon
[2] = test system: M19-MEL melanoma
[3] = test system: TK-10 renal
[4] = test system: COLO 205 colon
[5] = test system: DMS 273 small cell lung
[6] = test system: HT29 colon
[7] = test system: CAKI-1 renal
[8] = test system: HCT-15 colon
[9] = test system: RPMI-8226 leukemia
[10] = test system: HS 578T breast

Row | SMILES | TGI [1] | TGI [2] | TGI [3] | TGI [4] | TGI [5] | TGI [6] | TGI [7] | GI50 [1] | GI50 [8] | TGI [8] | GI50 [3] | GI50 [4] | GI50 [6] | TGI [9] | GI50 [7] | GI50 [10] | TGI [10] | GI50 [9]
1 | COc1ccc2cc3c4cc(OC)c(OC)cc4ccn3c2c1 | > 100 µM | > 100 µM | > 100 µM | > 100 µM | > 100 µM | > 100 µM | > 100 µM | – | – | – | – | – | – | – | – | – | – | –
2 | CC(=O)O[C@@H]1c2c(c3c(=O)c4cccc(O)c4c(=O)c=3c2=[N+]=[N-])[C@H](OC(C)=O)[C@@H](OC(C)=O)[C@]1(C)O | 1.22 µM | – | 1.14 µM and 0.365 µM | 1.29 µM and 0.296 µM | – | 0.605 µM and 0.265 µM | 1.04 µM and 0.374 µM | 0.216 µM | 0.135 µM | 0.476 µM and 0.298 µM | 0.191 µM | 0.605 µM and 0.16 µM | 0.135 µM and 0.113 µM | 0.361 µM and 0.394 µM | 0.182 µM | 575 nM | 0.881 µM and 3.54 µM | –
3 | CC(=O)OCC1OC(SC2=N/C(=C\c3ccc(Br)s3)C(=O)N2c2ccccc2)C(OC(C)=O)C(OC(C)=O)C1OC(C)=O (centres undefined) | > 100 µM | – | > 100 µM | > 100 µM | – | > 100 µM | 32.5 µM and > 100 µM | – | – | > 100 µM | – | – | > 100 µM and 28.6 µM | > 100 µM and 61 µM | 13.4 µM and 85.7 µM | – | 78.4 µM and > 100 µM | 37.7 µM and 7.96 µM
4 | OCC1OC(N2C=C(c3nc4ccccc4s3)C3C=CC=CC32)C(O)C(O)C1O (centres undefined) | > 50 µM | – | 32 µM | 20.9 µM | – | > 50 µM | > 50 µM | 21 µM | 31.1 µM | > 50 µM | 12.5 µM | 9.38 µM | 19 µM | 36.4 µM | 16.9 µM | 20100 nM | > 50 µM | 11.4 µM
5 | COc1ccc(C2c3ccc4ccccc4c3Oc3ncn(CCCn4ccnc4)c(=N)c32)cc1OC (centres undefined) | 9.24 µM | – | 14.4 µM | 4.51 µM | – | 5.6 µM | 17.8 µM | 2.73 µM | 3.37 µM | 12.8 µM | 4 µM | 2.04 µM | 2.2 µM | 8.58 µM | 4.84 µM | 2260 nM | 7.46 µM | 2.81 µM
6 | CCCCN(CCCC)P(=O)(Oc1ccccc1)Oc1ccccc1 | 19.4 µM | – | 33.1 µM | 26.7 µM | – | 21.6 µM | 11.3 µM | 5.41 µM | 4.73 µM | 22 µM | 15.8 µM | 11.3 µM | 4.95 µM | 26.8 µM | 2.42 µM | 6600 nM | 24.8 µM | 5.12 µM
7 | Oc1ccc(N=Nc2ccc(Br)cc2)c(O)c1 | > 100 µM | – | 24.8 µM | 48.9 µM | – | 77.9 µM | 21 µM | 3.64 µM | 3.42 µM | 19.4 µM | 4.95 µM | 17.8 µM | 15.5 µM | 5.35 µM | 4 µM | 2200 nM | 6.77 µM | 1.76 µM
8 | Cc1[nH]c2ccccc2c1CO | 28.4 µM | – | 67.1 µM | 27.3 µM | – | 34.7 µM | 42.2 µM | 15.1 µM | 18.5 µM | 93.2 µM | 21 µM | 14.2 µM | 15.9 µM | > 100 µM | 14.9 µM | 15600 nM | 44 µM | 26.9 µM
9 | Oc1nc(N2CCOCC2)sc1/C=C1\C=Nc2ccccc21 | > 100 µM | – | > 100 µM | > 100 µM | – | > 100 µM | > 100 µM | > 100 µM | > 100 µM | > 100 µM | > 100 µM | > 100 µM | 65.2 µM | > 100 µM | > 100 µM | > 100000 nM | > 100 µM | > 100 µM
10 | CCCCCCCCCCCCCCCCn1cc[n+](C)c1 | 1.78 µM | – | 0.929 µM | – | – | 1.25 µM | 2.33 µM | 0.468 µM | 0.989 µM | 2.15 µM | 0.254 µM | 0.27 µM | 0.291 µM | 0.19 µM | 0.385 µM | 383 nM | 1.75 µM | 0.024 µM
11 | CC(C)[C@@]12C[C@@H](OC(=O)C3CO3)[C@@](C)(O1)[C@@H]1CC[C@@H](C)[C@H]1[C@@H]2OC(=O)/C=C/c1ccccc1 (some centres undefined) | 39.3 µM | – | 65.8 µM | > 100 µM | – | > 100 µM | 54.8 µM | 18.5 µM | 21.1 µM | 60.6 µM | 29.6 µM | 27.8 µM | 33.6 µM | 55.2 µM | 13.1 µM | 354 nM | 3.11 µM | 20.4 µM
12 | O=c1[nH]c(-c2ccc(Cl)c(Cl)c2)cn1-c1ccc(Cl)cc1 | > 100 µM | – | 32.4 µM | > 100 µM | – | > 100 µM | 49 µM | 33.1 µM | > 100 µM | > 100 µM | 16.5 µM | 40.3 µM | 41.8 µM | > 100 µM | 25.4 µM | 17200 nM | 51.8 µM | 56.9 µM
13 | COc1ccc(Nc2ncc(I)c(NCCCNC(=O)C3CCC3)n2)cc1 | > 100 µM | – | 9.78 µM | 12.2 µM | – | 71 µM | 16 µM | 9.28 µM | 5.88 µM | 52.1 µM | 0.897 µM | 3.07 µM | 13.1 µM | 53.8 µM | 1.32 µM | 2940 nM | 13.2 µM | 10.3 µM
14 | COc1cc2c(/C=C3\C(=O)N(C)c4ccccc43)c[nH]c2cc1C | > 100 µM | – | 70.5 µM | > 100 µM | – | – | 51.3 µM | 1.68 µM | 0.33 µM | > 100 µM | 10.5 µM | 1.58 µM | 0.36 µM | > 20.1 µM | 2.01 µM | 3610 nM | > 38.8 µM | 1.42 µM
15 | COc1cc(CSc2nc3ccc(Cl)cc3c(=O)n2Cc2ccccc2)cc(OC)c1OC | > 100 µM | – | 51.8 µM | 4.05 µM | – | > 100 µM | > 100 µM | 2.65 µM | 1.46 µM | > 100 µM | 10.3 µM | 1.56 µM | 3.32 µM | > 100 µM | 3.19 µM | 1630 nM | 14.5 µM | 4.27 µM
16 | COc1ccc(-c2cnc(-c3ccc(OC)cc3)n2-c2cc(OC)c(OC)c(OC)c2)cc1 | > 100 µM | – | 39.2 µM | > 100 µM | – | > 100 µM | 80.2 µM | > 100 µM | 36 µM | > 100 µM | 20.5 µM | 56 µM | 47.7 µM | > 100 µM | 23.8 µM | 22900 nM | 64.2 µM | 25.7 µM
